Measured values: ChEMBL document CHEMBL1201862, “PubChem BioAssay data set” (2004)
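How tested: cells in 96-well plates exposed to compound for 48 hours at five concentrations. At the GI50, growth is halved.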 The source made the active and inactive calls. Cut-off read from the data, not from the text of the source: active = GI50 up to about 1.1 µM and inactive = higher.

What was measured:
Experiment in all cases: growth of human tumour cells (NCI), 48 h
786-0 = test system: 786-0
A498 = test system: A498
ACHN = test system: ACHN
CCRF-CEM = test system: CCRF-CEM
HT-29 = test system: HT-29
Hs-578T = test system: Hs-578T
IGROV-1 = test system: IGROV-1
K562 = test system: K562
KM12 = test system: KM12
MDA-N = test system: MDA-N
Malme-3M = test system: Malme-3M
NCI-H23 = test system: NCI-H23
NCI-H460 = test system: NCI-H460
NCI/ADR-RES = test system: NCI/ADR-RES
OVCAR-8 = test system: OVCAR-8
SF-268 = test system: SF-268
SF-295 = test system: SF-295
SK-MEL-2 = test system: SK-MEL-2
SK-MEL-5 = test system: SK-MEL-5
HOP-92 = test system: HOP-92

Measured: GI50

CCOC(=O)c1c(-c2ccccc2)c(OC)cn1C
inactive: 786-0 > 10 µM | A498 > 10 µM | ACHN > 10 µM | CCRF-CEM > 10 µM | HT-29 > 10 µM | Hs-578T > 10 µM | IGROV-1 > 10 µM | K562 > 10 µM | KM12 > 10 µM | MDA-N > 10 µM | Malme-3M > 10 µM | NCI-H23 > 10 µM | NCI-H460 > 10 µM | NCI/ADR-RES > 10 µM | OVCAR-8 > 10 µM | SF-268 > 10 µM | SF-295 > 10 µM | SK-MEL-2 > 10 µM | SK-MEL-5 > 10 µM

Cc1ccc(S(=O)(=O)N2CCN3C(=O)c4ccccc4C32c2ccc(F)cc2)cc1 (stereo not drawn)
inactive: 786-0 > 100 µM | A498 16.2 µM | ACHN 95.1 µM | CCRF-CEM 35.1 µM | HT-29 40.6 µM | Hs-578T > 100 µM | IGROV-1 22.9 µM | K562 42.4 µM | KM12 43.7 µM | MDA-N 27.5 µM | Malme-3M > 100 µM | NCI-H23 97.7 µM | NCI-H460 67.6 µM | NCI/ADR-RES 52 µM | OVCAR-8 > 100 µM | SF-268 98.4 µM | SF-295 85.7 µM | SK-MEL-2 55.6 µM | SK-MEL-5 17.7 µM

Clc1ccc(-c2nc3cc(Cl)ccc3[nH]2)cc1
inactive: 786-0 35.2 µM | ACHN 39.8 µM | CCRF-CEM 54 µM | HOP-92 27.7 µM | HT-29 33.6 µM | Hs-578T 30.8 µM | IGROV-1 43.4 µM | K562 38.9 µM | KM12 24 µM | MDA-N 29.1 µM | Malme-3M 48.2 µM | NCI-H23 27.6 µM | NCI-H460 31.3 µM | NCI/ADR-RES 19.9 µM | OVCAR-8 37.6 µM | SF-268 45.5 µM | SF-295 28.2 µM | SK-MEL-2 26.1 µM | SK-MEL-5 32.7 µM

O=C1/C(=C/c2ccccc2)N=C(c2ccccc2)N1n1c(-c2ccccc2)nc2ccccc2c1=O
inactive: 786-0 > 100 µM | A498 92 µM | ACHN 89.1 µM | CCRF-CEM 32.8 µM | HOP-92 97.5 µM | HT-29 70.5 µM | Hs-578T 35.2 µM | IGROV-1 > 100 µM | K562 61.7 µM | KM12 61.7 µM | MDA-N 54.8 µM | Malme-3M > 100 µM | NCI-H23 56.1 µM | NCI-H460 58.9 µM | NCI/ADR-RES 63.8 µM | OVCAR-8 > 100 µM | SF-268 64.6 µM | SF-295 91 µM | SK-MEL-5 38 µM

CCOC(=O)c1nc2ccccc2nc1NCc1ccc(OC)c(OC)c1
inactive: 786-0 > 100 µM | A498 > 100 µM | ACHN > 100 µM | CCRF-CEM > 100 µM | HOP-92 > 100 µM | HT-29 > 100 µM | Hs-578T 45.9 µM | IGROV-1 > 100 µM | K562 > 100 µM | KM12 > 100 µM | MDA-N > 100 µM | Malme-3M > 100 µM | NCI-H23 > 100 µM | NCI-H460 > 100 µM | NCI/ADR-RES > 100 µM | OVCAR-8 > 100 µM | SF-268 > 100 µM | SF-295 > 100 µM | SK-MEL-5 > 100 µM

Cn1ccc2c(c1=O)C(=O)OC2(C)C [CERPEGIN]
inactive: 786-0 > 100 µM | A498 > 100 µM | ACHN > 100 µM | CCRF-CEM > 100 µM | HT-29 > 100 µM | Hs-578T > 100 µM | IGROV-1 > 100 µM | K562 > 100 µM | KM12 > 100 µM | MDA-N > 100 µM | Malme-3M 65.6 µM | NCI-H23 > 100 µM | NCI-H460 > 100 µM | NCI/ADR-RES > 100 µM | OVCAR-8 > 100 µM | SF-268 > 100 µM | SF-295 > 100 µM | SK-MEL-5 > 100 µM
